This is an account of results in patent publication US20060030602A1, “(S)-amlodipine malate” (Sepracor Inc., priority 2004, published 2006).

As usually defined, the solubility is the concentration that dissolves in the medium under given conditions. Lower therefore signals a poorly soluble substance. For orientation: pKa means the negative logarithm of the acid dissociation constant. What is called Log P is the decadic logarithm of the partition coefficient of the neutral form, usually between octanol and water. A high value points to higher lipophilicity.

Where a name gives a salt, the structure may show the parent alone. Read-outs that look alike come from different tables or passages of the source. Some results are limits rather than exact numbers.

A short description of data set [1]: water content by Karl Fischer titration. The data set is classed as physicochemical. Particulars: coulometric titration. Here is the method: (§1) Moisture Sorption Isotherms: Moisture sorption isotherms were generated using VTI SGA-100 symmetric vapor sorption analyzer. Samples were not pre-dried. Equilibrium criteria were the lesser of 0.01 wt % change in 5 minutes or 180 minutes at each RH step. Temperature was fixed at 25° C. and the relative humidity steps (25% to 95% to 25%) were in 5% increments. In FIG. 27, adsorption data is shown as a solid line with desorption data connected by a dashed line. Water Content: Water content was determined by coulometric titration using an EM Science Aquastar® C300 Karl Fischer titrator. TGA: Samples were analyzed using Perkin Elmer TGA 7 thermal gravimetric analyzer at a heating rate of 10° C./min.

The nature of data set [2]: moisture balance (polymorph characterization). Particulars: equilibrated at 95% RH (sorption from 5% to 95% RH). The data set is classed as physicochemical. Here is the method: Moisture-sorption data were collected on a VTI SGA-100 moisture balance system. […] The sample was not dried prior to analysis. Equilibrium criteria used for analysis were less than 0.0100 weight-percent change in 5 minutes with a maximum equilibration time of 3 hours if the weight criterion was not met. The data were not corrected for the initial moisture content of the sample.

The format of data set [3] is physicochemical. Particulars: pH 3.8. Here is the method:
Samples at pH 3.8, 4.5, and 5.0 were monitored over 1 week. […] The sample at pH 8.0 was monitored over 2 days. […] The samples at pH 3.8 or greater were filtered using 0.2 μm PTFE syringe filters and assayed by HPLC. Saturated solutions with excess solid (S)-amlodipine L-malate were prepared and allowed to mix overnight at ambient temperature.

The conditions of data set [4]: pH 4.
Text: (§2) The solution was sampled periodically, filtered using a 0.2 μm PTFE syringe filter and assayed by HPLC.
(§3) The sample was filtered through a 0.2 μm filter and assayed by HPLC.
The format of data set [5] is physicochemical. The following applies: 60° C./75% RH. The method, then: Individual samples were prepared and stored at 25° C./60% RH and 40° C./75% RH. Samples stored at 60° C./75% RH were packaged in uncapped glass vials. All samples were analyzed for assay and impurity by HPLC.
Data set [6] in a line: adhesion studies on tablet punches. The following applies: for Adhesion, 5% (S)-Amlodipine salt in Avicel: 5% API blend with Avicel PH 101, 0.2 metric tons; for Adhesion, 5% (S)-Amlodipine salt in Avicel / Adhesion, 25% (S)-Amlodipine salt in Avicel: punch wash assayed by HPLC; for Adhesion, 25% (S)-Amlodipine salt in Avicel: 25% API blend with Avicel PH 101, 0.2 metric tons; for adhesion to solid dosage form manufacturing equipment compared to other salts: blended at 5% and 25% with Avicel. Format: physicochemical. The method, then:
Avicel PH 101 and each (S)-amlodipine salt were pre-screened through a 25-mesh sieve to delump the powders prior to blending. […] Approximately 500 mg was weighed into the ½-inch tablet die, a tablet punch was added and 0.2 metric tons of pressure was applied using a Carver press for 2-3 seconds. The tablet was then removed, and the surfaces of the tablet punches (concave, SRC) were washed with mobile phase (1 mL). The wash was then assayed by HPLC. Three measurements were made for each blend.

The next data set can be described thus: wettability. Format: physicochemical. Particulars: DI water and 100 mM aqueous buffers.
Data set [7] in a line: hygroscopicity studies in relative humidity chambers. Format: physicochemical. The following applies: 31, 75, 84 and 95% relative humidity, approximately one week. The method, then:
Hygroscopicity studies were performed by placing portions of a select form in a 11, 32, 45, 66, 75, 84% or 95% relative humidity (RH) chamber for approximately one to three weeks. Desolvation studies were carried out by heating each form in an 80° C. oven for approximately one week. Interconversion experiments were carried out by making slurries containing two forms in a saturated solvent. The slurries were agitated for approximately seven days at ambient temperature. The insoluble solids were recovered by filtration and analyzed using XRPD.

Data set [8] is classed as physicochemical. The method, then: as §1
Data set [9] is described as follows: true, bulk and tapped density. Format: physicochemical. The method, then:
Bulk and Tap Density: Bulk and tap densities were determined (˜10 grams in a 50 mL graduated cylinder) using a Quantachrome Dual Autotap instrument. The bulk density was measured after 3 taps, and the tapped density was measured after 1000 taps. True Density: True density was determined using a MVP-2 Quantachrome micropycnometer and He gas.

Data set [10] in a line: specific surface area (BET). Particulars: N2, single measurement. Format: physicochemical. The method, then:
The sample was degassed for 2 hours prior to surface area analysis at 40° C./vacuum using the Micromeritics […] 061. […] The surface area of (S)-amlodipine L-malate SCL was determined using the BET method. BET (Specific) Surface Area measurement was done with a single run (n=1), using 6 different partial pressures of N2 gas (as the adsorbate). See Brunauer, […]., and Teller, E. J. Amer. Chem. Soc. 1938, 60, 309.

The format of data set [11] is physicochemical. The method, then:
The GLpKa potentiometric system uses expert system software to calculate and refine the pKa and Log P from simple acid and base titrations of chemical substances. […] The solution was then titrated with acid to the final pH. The pH range of the experiment was 3-11. An approximate pKa was determined, and refined to a final value using the expert system software. The Log P was determined by titration in the presence of octanol. The pKa in water and the pKa in the presence of octanol were compared, and the Log P value was calculated (Avdeef A. Quant. Struct.-Act. Relate. 1992, 11, 510). […] Samples were analyzed in duplicate.
This is another data set of the same source.

A further data set is described as follows: TGA. The data set is classed as physicochemical. The following applies: heating rate 10° C./min. The method, then: as §1
A short description of data set [12]: water solubility in DI H2O. Particulars: pH 3.56.
Text: as §2, §3
For data set [13] the following is noted: no buffer.

In the case of (S)-amlodipine L-malate, the “KF (% H2O)” value in [1] is reported as 0.13 % H2O. Also, the “increase in weight, moisture balance” value in [2] came to 0.5%. The same compound showed a solubility in [3] of over 100 mg/mL. Moreover, the “Free Base Concentration” value turned out to be 10.1 mg/mL in [4] and 6.0 mg/mL in [12]. For the same compound, the “Malate Concentration” value is 13.4 mg/mL in data set [4] and 8.0 mg/mL in [12]. Further, in data set [5], the “time for which the solid was fairly stable” value is listed as over 2 months. Moreover, the “Adhesion, 5% (S)-Amlodipine salt in Avicel” value in data set [6] is 4.9E−07 g (S)-amlodipine/cm^2. The “Adhesion, 25% (S)-Amlodipine salt in Avicel” value in data set [6] is recorded as 2.6E−06 g (S)-amlodipine/cm^2. Besides, the “adhesion to solid dosage form manufacturing equipment compared to other salts” value was “decreased adhesion” in [6]; “less than for the succinate, maleate, (D)-tartrate, and (L)-tartrate salts” in data set [6] (listed as malate salt). Moreover, the wettability result in the data set “wettability” is “good wettability”. In data set [7], the “solid form after humidity storage” value is recorded as “remained unchanged”. In data set [8], the “Moisture Desorption (% wt remaining at 25% RH)” value is listed as 0.06 % wt remaining. Further, the “Moisture Adsorption (% wt gain at 95% RH)” value in data set [8] (25° C., 95% RH) came to 0.24 % wt gain. In addition, in [8] (25° C./95% RH, three lots tested), the “maximum adsorption of water” value is at most 0.30%. In addition, in [8] (moisture sorption, TGA and Karl Fischer data), the “hygroscopicity (in words)” value is recorded as “not hygroscopic”. The True density in data set [9] is given as 1.38 g/cc; in [9] (micropycnometer, He gas), 1.38 g/mL. The Bulk density in data set [9] (after 3 taps) was 0.31 g/mL. The compound also had a Tapped density in [9] (after 1000 taps) of 0.49 g/mL. Moreover, the Specific surface area in data set [10] is listed as 0.7 m^2/g. Besides, the pKa in data set [11] came to 9.19±0.20. In addition, the “Log P” value in data set [11] (pH 5) is reported as −2.67±0.40; in data set [11] (pH 7.4), −0.28±0.40. For the same compound, the “TGA (% wt loss)” value in “TGA” is given as 0.14 % wt loss.
On to `CCOC(=O)C1=C(COCCN)NC(C)=C(C(=O)OC)[C@@H]1c1ccccc1Cl.O=C(O)C(O)C(O)C(=O)O` [(S)-amlodipine D-tartrate], for which, in data set [6], the “Adhesion, 5% (S)-Amlodipine salt in Avicel” value is 6.0E−07 g (S)-amlodipine/cm^2 and the “Adhesion, 25% (S)-Amlodipine salt in Avicel” value is 2.8E−06 g (S)-amlodipine/cm^2.
Consider `CCOC(=O)C1=C(COCCN)NC(C)=C(C(=O)OC)[C@@H]1c1ccccc1Cl` [(S)-amlodipine maleate], for which, in data set [6], the “Adhesion, 5% (S)-Amlodipine salt in Avicel” value is listed as 5.8E−07 g (S)-amlodipine/cm^2 and the “Adhesion, 25% (S)-Amlodipine salt in Avicel” value is 3.9E−06 g (S)-amlodipine/cm^2. In addition, the “pH of saturated solution in water” value in [13] was 4.9. Besides, the loss (after 5 hours @ pH 1) is 1%. In addition, the loss (after 50 hours @ pH 5) is given as 1%.
Consider `O=C(O)[C@H](O)[C@@H](O)C(=O)O` [(L)-Tartrate], for which, in data set [6], the “Adhesion, 5% (S)-Amlodipine salt in Avicel” value is recorded as 9.3E−07 g (S)-amlodipine/cm^2 and the “Adhesion, 25% (S)-Amlodipine salt in Avicel” value is reported as 4.9E−06 g (S)-amlodipine/cm^2.
